{"source": "patent US20240262842A1", "about": "“SMALL MOLECULE INHIBITORS OF KRAS G12C MUTANT” (Merck Sharp & Dohme LLC, priority 2021, published 2024)"}
{"molecular_target": "biotinylated KRAS G12C protein (GMP-PNP loaded) and GST-tagged Ras binding domain of c-RAF (Homo sapiens, UniProt P01116, C118S/C51S/C80L/G12C)", "sequence (P01116 with tags, fused parts or gaps isoform P01116-2 G12C/C51S/C80L/C118S)": "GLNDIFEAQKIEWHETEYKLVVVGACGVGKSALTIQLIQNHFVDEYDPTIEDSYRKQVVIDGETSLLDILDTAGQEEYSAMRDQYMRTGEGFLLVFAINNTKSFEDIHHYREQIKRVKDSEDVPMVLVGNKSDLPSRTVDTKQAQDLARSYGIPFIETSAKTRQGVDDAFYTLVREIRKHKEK", "experiment": "RAS:RAF-RBD binding assay (TR-FRET)", "settings": "30-minute incubation of compound with KRAS G12C before RAF-RBD; Table 4; read-out: IC50", "units": {"IC50": "nM"}}
{"compound": "Cc1nc2c3c(c(C(F)(F)F)cc2n1C)-c1cccn2c(C(=O)c4cc(F)c(NC(=O)/C=C/CN5CC6(CCCOC6)C5)c(F)c4)cc(c12)CCO3", "note": "[Example 253, mono((E)-2-(4-(4-(6-oxa-2-azaspiro[3.5]nonan-2-ium-2-yl)but-2-enamido)-3,5-difluorobenzoyl)-9,10-dimethyl-7-(trifluorometh-yl)-13,14-dihydro-9H-imidazo[4″,5″:5′,6′]benzo-[1′,2′:2,3]oxocino[4,5,6-hi]indolizin-11-ium) mono-(2,2,2-trifluoroacetate)]", "IC50": 24.8}
{"compound": "Cc1nc2c3c(c(C(F)(F)F)cc2n1C)-c1cccn2c(C(=O)c4cc(F)c(NC(=O)C=CCN5CCC5CC(=O)N(C)C)c(F)c4)cc(c12)CCO3", "note": "[Example 254, mono(2-(4-((E)-4-((2S)-2-(2-(dimethylamino)-2-oxoethyl)azetidin-1-ium-1-yl)but-2-enamido)-3,5-difluorobenzoyl)-9,10-dimethyl-7-(trifluorometh-yl)-13,14-dihydro-9H-imidazo[4″,5″:5′,6′]benzo-[1′,2′:2,3]oxocino[4,5,6-hi]indolizin-11-ium) mono(2,2,2-trifluoro-acetate)]", "IC50": 20.9}
{"compound": "Cc1nc2c3c(c(C(F)(F)F)cc2n1C)-c1cccn2c(C(=O)c4cc(F)c(NC(=O)C=CCN5CCCC5C5(O)CC5)c(F)c4)cc(c12)CCO3", "note": "(stereo not shown) [Example 255, mono(2-(3,5-difluoro-4-((E)-4-((28)-2-(1-hydroxy-cyclopropyl)pyrrolidin-1-ium-1-yl)but-2-enamido)-benzoyl)-9,10-dimethyl-7-(trifluoromethyl)-13,14-dihydro-9H-imidazo-[4″,5″:5′,6′]benzo[1′,2′: 2,3]oxocino[4,5,6-hi]-indolizin-11-ium) mono-(2,2,2-trifluoroacetate)]", "IC50": 11.7}
{"compound": "Cc1nc2c3c(c(C(F)(F)F)cc2n1C)-c1cccn2c(C(=O)c4cc(F)c(NC(=O)/C=C/CN5CCC[C@H]5CO)c(F)c4)cc(c12)CCO3", "note": "[Example 256, mono(2-(3,5~difluoro-4-((E)-4-((2S)-2-(hydroxy-methyl)pyrrolidin-1-ium-1-yl)but-2-enamido)ben-zoyl)-9,10-dimethyl-7-(trifluoromethyl)-13,14-dihydro-9H-imidazo-[4,5″:5′,6′]benzo[1′,2′: 2,3]oxocino[4,5,6-hi]-indolizin-11-ium) mono-(2,2,2-trifluoroacetate)]", "IC50": 4.7}
{"compound": "Cc1nc2c3c(c(C(F)(F)F)cc2n1C)-c1cccn2c(C(=O)c4cc(F)c(NC(=O)C=CCN5CC6CC5CO6)c(F)c4)cc(c12)CCO3", "note": "[Example 257, mono(2-(4-((E)-4-((1S,4S)-2-oxa-5-aza-bicyclo-[2.2.1]heptan-5-ium-5-yl)but-2-enamido)-3,5-difluorobenzoyl)-9,10-dimethyl-7-(trifluorometh-yl)-13,14-dihydro-9H-imidazo[4″,5″:5′,6′]benzo-[1′,2′:2,3]oxocino[4,5,6-hi]indolizin-11-ium) mono(2,2,2-trifluoro-acetate)]", "IC50": 9.69}
{"compound": "Cc1nc2c3c(c(C(F)(F)F)cc2n1C)-c1cccn2c(C(=O)c4cc(F)c(NC(=O)/C=C/[C@@H]5C[C@@H](F)CN5)c(F)c4)cc(c12)CCO3", "note": "[Example 260, (2S,4R)-2-((E)-3-((4-(9,10-dimethyl-7-(tri-fluoromethyl)-13,14-dihydro-9H-imidazo-[4″,5″:5′,6′]benzo[1′,2′: 2,3]oxocino[4,5,6-hi]-indolizine-2-carbonyl)-2,6-difluorophenyl)-amino)-3-oxoprop-1-en-1-yl)-4-fluoropyrrolidin-1-ium 2,2,2-trifluoro-acetate]", "IC50": 11.7}
{"molecular_target": "biotinylated KRAS G12C protein (GMP-PNP loaded) and GST-tagged Ras binding domain of c-RAF (Homo sapiens, UniProt P01116, C118S/C51S/C80L/G12C)", "experiment": "RAS:RAF-RBD binding assay (TR-FRET)", "settings": "IC50, 30-minute incubation of compound with KRAS G12C before RAF-RBD; Table 4", "units": {"IC50": "nM"}}
{"compound": "CO[C@H]1CC[C@H](NC/C=C/C(=O)Nc2ccc(C(=O)c3cn4c5c(cccc35)-c3c(C(F)(F)F)cc5c(nc(C)n5C)c3OCC4)cc2)CC1", "note": "[Example 263, mono(2-(4-((E)-4-(((1r, 4r)-4-methoxycyclohexyl)-ammonio)but-2-enamido)-benzoyl)-8,9-dimethyl-6-(trifluoromethyl)-12,13-dihydro-8H-imidazo-[4″,5″:3′,4′]benzo[1′,2′: 7,8][1,4]oxazocino[6,5,4-hi]indol-10-ium) mono-(2,2,2-trifluoroacetate)]", "IC50": 9.25}
